Values after ≈ are worked out from the molar mass of the structure shown.
Tests used:
[1] = tested on: methicillin-sensitive Staphylococcus aureus; test: MIC by broth micro-dilution (CLSI), methicillin-sensitive S. aureus; type: cell-based; settings: Staphylococcus aureus, ATCC 29213 / MSSA, MSSA S. aureus ATCC29213; read-out: MIC
[2] = tested on: carbapenem sensitive Escherichia coli; test: MIC by broth micro-dilution (CLSI), carbapenem sensitive E. coli; type: cell-based; settings: Escherichia coli, ATCC25922, ESBL −ve E. coli ATCC25922; read-out: MIC
[3] = tested on: extended spectrum β lactamase (ESBL) SHV18 producing Klebsiella pneumoniae; test: MIC by broth micro-dilution (CLSI), ESBL SHV18 producing K. pneumoniae; type: cell-based; settings: Klebsiella pneumoniae, ATCC700603, 22 h, ESBL +ve (SHV-18) K. pneumoniae ATCC700603; read-out: MIC
[4] = tested on: carbapenemase producing K. pneumoniae; test: MIC by broth micro-dilution (CLSI), carbapenemase producing K. pneumoniae; type: cell-based, Klebsiella pneumoniae; settings: Klebsiella pneumoniae, ATCCBAA1705, KPC-2 K. pneumoniae ATCC BAA-1705; read-out: MIC
[5] = tested on: carbapenem sensitive Pseudomonas aeruginosa; test: MIC by broth micro-dilution (CLSI), carbapenem sensitive P. aeruginosa; type: cell-based; settings: Pseudomonas aeruginosa, ATCC27853, Meropenem susceptible P. aeruginosa ATCC27853; read-out: MIC

C[C@@H](NC(=O)CN(C)C(=N)N)[C@H]1C(=O)N2C(C(=O)O)=C(S[C@@H]3CN[C@H](C(=O)N(C)C)C3)[C@H](C)[C@H]12 [Example 231]
MIC [1]: 32 µg/mL (≈ 64.6 µM)
MIC [2]: 1 µg/mL (≈ 2.02 µM)
MIC [3]: 4 µg/mL (≈ 8.07 µM)
MIC [4]: 2 µg/mL (≈ 4.04 µM)
MIC [5]: 16 µg/mL (≈ 32.3 µM)

C[C@@H](NC(=O)CNS(C)(=O)=O)[C@H]1C(=O)N2C(C(=O)O)=C(S[C@@H]3CN[C@H](C(=O)N(C)C)C3)[C@H](C)[C@H]12 [Example 70]
MIC [1]: 16 µg/mL (≈ 30.9 µM)
MIC [2]: 4 µg/mL (≈ 7.73 µM)
MIC [3]: 8 µg/mL (≈ 15.5 µM)
MIC [4]: 16 µg/mL (≈ 30.9 µM)
MIC [5]: > 128 µg/mL

C[C@@H](NS(=O)(=O)Cc1ccccc1)[C@H]1C(=O)N2C(C(=O)O)=C(S[C@@H]3CN[C@H](C(=O)N(C)C)C3)[C@H](C)[C@H]12 [Example 16]
MIC [1]: 4 µg/mL (≈ 7.45 µM)
MIC [2]: 4 µg/mL (≈ 7.45 µM)
MIC [3]: 64 µg/mL (≈ 119 µM)
MIC [4]: 16 µg/mL (≈ 29.8 µM)
MIC [5]: > 128 µg/mL

COC(=O)N[C@H](C)[C@H]1C(=O)N2C(C(=O)O)=C(S[C@@H]3CN[C@H](C(=O)N(C)C)C3)[C@H](C)[C@H]12 [Example 14]
MIC [1]: 4 µg/mL (≈ 9.08 µM)
MIC [2]: 0.5 µg/mL (≈ 1.14 µM)
MIC [3]: 4 µg/mL (≈ 9.08 µM)
MIC [4]: 4 µg/mL (≈ 9.08 µM)
MIC [5]: 128 µg/mL (≈ 291 µM)

CNCC(=O)N[C@H](C)[C@H]1C(=O)N2C(C(=O)O)=C(S[C@@H]3CN[C@H](C(=O)N4C[C@@H](O)[C@@H](N)C4)C3)[C@H](C)[C@H]12 [Example 218]
MIC [1]: 16 µg/mL (≈ 31.3 µM)
MIC [2]: 1 µg/mL (≈ 1.96 µM)
MIC [3]: 2 µg/mL (≈ 3.92 µM)
MIC [4]: 2 µg/mL (≈ 3.92 µM)
MIC [5]: 2 µg/mL (≈ 3.92 µM)

CNC(=O)[C@@H]1C[C@H](N)CN1C(=O)[C@@H]1C[C@H](SC2=C(C(=O)O)N3C(=O)[C@H]([C@@H](C)NC(=O)C(F)F)[C@H]3[C@H]2C)CN1 [Example 141]
MIC [1]: 4 to 8 µg/mL (≈ 7.16 to 14.3 µM)
MIC [2]: 1 µg/mL (≈ 1.79 µM)
MIC [3]: 4 to 8 µg/mL (≈ 7.16 to 14.3 µM)
MIC [4]: 4 to 8 µg/mL (≈ 7.16 to 14.3 µM)
MIC [5]: 64 µg/mL (≈ 115 µM)

C[C@@H](NC(=O)C(F)F)[C@H]1C(=O)N2C(C(=O)O)=C(S[C@@H]3CN[C@H](C(=O)N4CC[C@@H](N)C4)C3)[C@H](C)[C@H]12 [Example 124]
MIC [1]: 2 µg/mL (≈ 3.99 µM)
MIC [2]: 1 µg/mL (≈ 1.99 µM)
MIC [3]: 4 µg/mL (≈ 7.98 µM)
MIC [4]: 4 µg/mL (≈ 7.98 µM)
MIC [5]: 4 µg/mL (≈ 7.98 µM)

C[C@@H](NS(=O)(=O)C(F)(F)F)[C@H]1C(=O)N2C(C(=O)O)=C(S[C@@H]3CN[C@H](C(=O)N4CCN(C)CC4)C3)[C@H](C)[C@H]12 [Example 25]
MIC [1]: 4 µg/mL (≈ 7.02 µM)
MIC [2]: 1 µg/mL (≈ 1.76 µM)
MIC [3]: 8 µg/mL (≈ 14 µM)
MIC [4]: 8 µg/mL (≈ 14 µM)
MIC [5]: 128 µg/mL (≈ 225 µM)

C[C@@H](NC(=O)C(F)F)[C@H]1C(=O)N2C(C(=O)O)=C(S[C@@H]3CN[C@H](CN4CC[C@H](N)C4)C3)[C@H](C)[C@H]12 [Example 150]
MIC [1]: 4 µg/mL (≈ 8.2 µM)
MIC [2]: 4 µg/mL (≈ 8.2 µM)
MIC [3]: 64 µg/mL (≈ 131 µM)
MIC [4]: 16 µg/mL (≈ 32.8 µM)
MIC [5]: 64 µg/mL (≈ 131 µM)

CNCC(=O)N[C@H](C)[C@H]1C(=O)N2C(C(=O)O)=C(S[C@@H]3CN[C@H](C(=O)N4CC[C@H](NC=N)C4)C3)[C@H](C)[C@H]12 [Example 199]
MIC [1]: 32 µg/mL (≈ 61.3 µM)
MIC [2]: 1 µg/mL (≈ 1.92 µM)
MIC [3]: 4 µg/mL (≈ 7.67 µM)
MIC [4]: 2 µg/mL (≈ 3.83 µM)
MIC [5]: 4 µg/mL (≈ 7.67 µM)

CNCC(=O)N[C@H](C)[C@H]1C(=O)N2C(C(=O)O)=C(S[C@@H]3CN[C@H](C(=O)N4CC[N+](C)(CCN)CC4)C3)[C@H](C)[C@H]12 [Example 222]
MIC [1]: 64 µg/mL
MIC [2]: 2 µg/mL
MIC [3]: 8 µg/mL
MIC [4]: 4 µg/mL
MIC [5]: 8 µg/mL

C[C@@H](NC(=O)[C@H]1CCCN1)[C@H]1C(=O)N2C(C(=O)O)=C(S[C@@H]3CN[C@H](C(=O)N(C)C)C3)[C@H](C)[C@H]12 [Example 227]
MIC [1]: 64 µg/mL (≈ 133 µM)
MIC [2]: 2 µg/mL (≈ 4.17 µM)
MIC [3]: 8 µg/mL (≈ 16.7 µM)
MIC [4]: 4 µg/mL (≈ 8.34 µM)
MIC [5]: 32 µg/mL (≈ 66.7 µM)

C[C@@H](NC(=O)C(F)F)[C@H]1C(=O)N2C(C(=O)O)=C(S[C@@H]3CN[C@H](C(=O)N4CCC(F)(F)CC4)C3)[C@H](C)[C@H]12 [Example 76]
MIC [1]: 2 µg/mL (≈ 3.73 µM)
MIC [2]: 1 µg/mL (≈ 1.86 µM)
MIC [3]: 8 µg/mL (≈ 14.9 µM)
MIC [4]: 8 µg/mL (≈ 14.9 µM)
MIC [5]: > 128 µg/mL

CNCC(=O)N[C@H](C)[C@H]1C(=O)N2C(C(=O)O)=C(S[C@@H]3CN[C@H](C(=O)N4CC[C@@H](O)C4)C3)[C@H](C)[C@H]12 [Example 192]
MIC [1]: 64 µg/mL (≈ 129 µM)
MIC [2]: 1 µg/mL (≈ 2.02 µM)
MIC [3]: 2 µg/mL (≈ 4.04 µM)
MIC [4]: 2 µg/mL (≈ 4.04 µM)
MIC [5]: 4 µg/mL (≈ 8.07 µM)

CNCc1cn([C@H](C)[C@H]2C(=O)N3C(C(=O)O)=C(SC4CN[C@H](C(=O)N(C)C)C4)[C@H](C)[C@H]23)nn1 (some centres unmarked) [Example 208]
MIC [1]: 64 µg/mL (≈ 134 µM)
MIC [2]: 4 µg/mL (≈ 8.38 µM)
MIC [3]: 8 µg/mL (≈ 16.8 µM)
MIC [4]: 8 µg/mL (≈ 16.8 µM)
MIC [5]: > 128 µg/mL

CC(C)C[C@@H](N)C(=O)N[C@H](C)[C@H]1C(=O)N2C(C(=O)O)=C(S[C@@H]3CN[C@H](C(=O)N(C)C)C3)[C@H](C)[C@H]12 [Example 113]
MIC [1]: 16 µg/mL (≈ 32.3 µM)
MIC [2]: 4 µg/mL (≈ 8.07 µM)
MIC [3]: 32 µg/mL (≈ 64.6 µM)
MIC [4]: 16 µg/mL (≈ 32.3 µM)
MIC [5]: > 128 µg/mL

Reference: US11180504B2 (ORCHID PHARMA LTD., priority 2016, dated 2021)
